In data set [1] the test system is female APOE*3Leiden mice. As to the kind of experiment: Undiseased segments in the aortic root, Method 2. Type of data set: in vivo. The conditions noted are these: 12 weeks; for Undiseased segments (% of total): aortic root, n=12 per group, means±SD. The method, then:
(§1) Fifty-six female APOE*3Leiden mice (age 11-13 weeks, body weight 20-25 gram) were put on a semi-synthetic Western-type diet for 4 weeks and were subsequently treated with or without NO-atorvastatin (13.0 mg/kg b.w. or 0.0108% w/w), ezetimibe (0.1 mg/kg b.w. or 0.000083% w/w until week 6 and 0.3 mg/kg b.w. or 0.000249% w/w from week 6-12) and a combination of NO-atorvastatin with ezetimibe for 12 weeks. At time point t=0, t=4, t=8 and t=12 blood was collected for the measurement of the indicated lipid and inflammation parameters and at sacrifice serum, heart, thoracic aorta and liver were collected. The number of lesions and the number of undiseased segments in the aortic root were measured.
The number of undiseased segments in the aortic root was counted individually (n=12 per group) and calculated as percentage of all quantified segments. Values are percentages (means±SD).

Data set [2] relates to female APOE*3Leiden mice. Put plainly: Plasma ALT levels (liver function), Method 1. The class given is in vivo. The conditions noted are these: for ALT: pooled plasma. On the procedure:
Alanine transaminase (ALT), as measure for liver function, was measured in pooled samples using the spectrophotometric assay of the Boehringer Reflotron system.

Data set [3] concerns female APOE*3Leiden mice. As to the kind of experiment: Progression of atherosclerosis (overall, lesion area), Method 2. The conditions noted are these: 12 weeks; result in words. The class given is in vivo. The method, then: as §1
For data set [4], the system named is female APOE*3Leiden mice. As to the kind of experiment: Number of lesions in the aortic root, Method 2. The following applies: for influence on number of lesions as compared to the control group: 12 weeks, result in words; for Lesion number per cross section: t = 12 weeks, NO-atorvastatin 13.0 mg/kg, ezetimibe 0.1 then 0.3 mg/kg, means±SD. The class given is in vivo. The method, then: as §1
The number of lesions per cross section is presented as absolute values (means±SD).

The test system of data set [5] is female APOE*3Leiden mice. As to the kind of experiment: Total plasma cholesterol, Method 1. The class given is in vivo. More on the design: decreased plasma cholesterol levels (vs control): concentration or dose not given beside the values. The following applies: for Cholesterol: means ± SD. On the procedure:
Total plasma cholesterol was determined using kit “Chol R1” is from Roche.

In data set [6] the test system is female APOE*3Leiden mice. As to the kind of experiment: Plasma triglycerides, Method 1. The class given is in vivo. The conditions noted are these: for Triglycerides: means ± SD. The method, then:
(§2) At the end of each treatment period blood was collected for the indicated lipid and inflammation parameters and at sacrifice livers and plasma/serum were collected.
Triglycerides level was determined using kit “Triglycerides GPO-PAP” from Roche.

The test system of data set [7] is female APOE*3Leiden mice. The conditions noted are these: t = 8 weeks; means ± SD, n ≧ 9 mice per group. On the procedure: as §2
P-Selectin, adhesion molecule as inflammation marker, was determined using commercially available Elisa kit.

Setting [8] is: t = 0 (before treatment), n ≧ 9 mice per group.
Setting [9] is: t = 4 weeks, NO-atorvastatin 4.3 mg/kg, ezetimibe 0.1 mg/kg, fenofibrate 1 mg/kg in diet.
Setting [10] is: t = 8 weeks, NO-atorvastatin 13 mg/kg, ezetimibe 0.1 mg/kg, fenofibrate 3 mg/kg from week 4.
Where [11] appears, read: t = 4 weeks, NO-atorvastatin 4.3 mg/kg, ezetimibe 0.1 mg/kg, fenofibrate 1 mg/kg.
Setting [12] is: t = 4 weeks, NO-atorvastatin 4.3 mg/kg, fenofibrate 1 mg/kg.
Setting [13] is: t = 8 weeks, NO-atorvastatin 13 mg/kg, fenofibrate 3 mg/kg from week 4.

In the case of `O=C1[C@H](CC[C@H](O)c2ccc(F)cc2)[C@@H](c2ccc(O)cc2)N1c1ccc(F)cc1` [Ezetimibe, ezetimibe], the “effect on number of undiseased segments” value in the data set on female APOE*3Leiden mice [1] (result in words) was “did not affect the number of undiseased segments”. In addition, the “Undiseased segments (% of total)” value in the data set on female APOE*3Leiden mice [1] is 16.0 ± 14.8 % of total. Further, the ALT with female APOE*3Leiden mice [2] (setting [8]) is given as 120 U/L; with female APOE*3Leiden mice [2] (setting [9]), 92 U/L; in the data set on female APOE*3Leiden mice [2] (setting [10]) it was 81 U/L. The “effect on progression of atherosclerosis” value in the data set with female APOE*3Leiden mice [3] is “did not affect the progression of atherosclerosis”. Besides, in the data set with female APOE*3Leiden mice [4], the “influence on number of lesions as compared to the control group” value was “did not influence the number of lesions”. In addition, in the data set with female APOE*3Leiden mice [4], the “Lesion number per cross section” value was 3.5 ± 1.0. In addition, the “decreased plasma cholesterol levels (vs control)” value is −25% in the data set on female APOE*3Leiden mice [5] (after 4 weeks of treatment) and −35% with female APOE*3Leiden mice [5] (after 8 weeks of treatment). For the same compound, the Cholesterol in the data set on female APOE*3Leiden mice [5] (setting [8]) is on record as 18.6 ± 2.6 mmol/L; in the data set on female APOE*3Leiden mice [5] (setting [11]), 16.8 ± 2.4 mmol/L; in the data set on female APOE*3Leiden mice [5] (setting [10]) it was 14.9 ± 3.2 mmol/L.

Regarding `CC(C)OC(=O)C(C)(C)Oc1ccc(C(=O)c2ccc(Cl)cc2)cc1` [Fenofibrate, fenofibrate], the “increased ALT levels as compared to the control mice” value is listed as “+43%” in the data set with female APOE*3Leiden mice [2] (t=4 weeks) and “+60%” with female APOE*3Leiden mice [2] (t=8 weeks). In addition, the Triglycerides was determined as 2.6 ± 0.7 mmol/L in the data set with female APOE*3Leiden mice [6] (setting [8]), 2.2 ± 0.5 mmol/L in the data set with female APOE*3Leiden mice [6] (setting [12]) and 1.6 ± 0.5 mmol/L in the data set with female APOE*3Leiden mice [6] (setting [13]). The “decrease of plasma triglycerides compared to the control group” value in the data set on female APOE*3Leiden mice [6] (t=8 weeks) worked out at 41%. For the same compound, the “decreased plasma cholesterol levels (vs control)” value is listed as “no effect” in the data set on female APOE*3Leiden mice [5] (after 4 weeks of treatment) and −28% in the data set with female APOE*3Leiden mice [5] (after 8 weeks of treatment). This compound showed a Cholesterol in the data set on female APOE*3Leiden mice [5] (setting [10]) of 16.5 ± 2.2 mmol/L.

For the compound `CC(C)c1c(C(=O)Nc2ccccc2)c(-c2ccccc2)c(-c2ccc(F)cc2)n1CC[C@@H](O)C[C@@H](O)CC(=O)OCCCCO[N+](=O)[O-]` [NO-atorvastatin, atorvastatin 4-(nitrooxy) butyl ester], the “Undiseased segments (% of total)” value in the data set with female APOE*3Leiden mice [1] is given as 26.4 ± 15.0 % of total. The ALT is given as 120 U/L in the data set with female APOE*3Leiden mice [2] (setting [8]), 114 U/L in the data set on female APOE*3Leiden mice [2] (setting [9]) and 91 U/L in the data set with female APOE*3Leiden mice [2] (setting [10]). Moreover, the “effect on progression of atherosclerosis” value with female APOE*3Leiden mice [3] is reported as “reduced atherosclerosis in lesion area”. Moreover, the Triglycerides was 2.7 ± 0.3 mmol/L in the data set with female APOE*3Leiden mice [6] (setting [8]), 3.2 ± 0.7 mmol/L in the data set with female APOE*3Leiden mice [6] (setting [12]) and 2.7 ± 0.5 mmol/L with female APOE*3Leiden mice [6] (setting [13]). Besides, the “influence on number of lesions as compared to the control group” value in the data set with female APOE*3Leiden mice [4] is listed as “did not influence the number of lesions”. Besides, the “Lesion number per cross section” value with female APOE*3Leiden mice [4] was determined as 3.2 ± 0.7. In the data set on female APOE*3Leiden mice [7], the P-Selectin is 190 ± 23 ng/mL. Also, the “decreased plasma cholesterol levels (vs control)” value is −21% in the data set on female APOE*3Leiden mice [5] (after 4 weeks of treatment) and −34% in the data set with female APOE*3Leiden mice [5] (after 8 weeks of treatment). The results for the Cholesterol with female APOE*3Leiden mice [5] (setting [8]), in the data set on female APOE*3Leiden mice [5] (setting [11]) and in the data set on female APOE*3Leiden mice [5] (setting [10]) were 18.6 ± 2.8 mmol/L, 17.7 ± 2.5 mmol/L and 15.2 ± 3.0 mmol/L, respectively.

Source of the values: patent US20110077232A1, “COMPOSITIONS COMPRISING ATORVASTATIN 4-(NITROOXY) BUTYL ESTER AND A HYPOLIPIDEMIC DRUG” (Nicox S.A., priority 2008, published 2011).
